# From patent US20250018046A1, “COMPOUNDS FOR TARGETING DEGRADATION OF IRAK4 PROTEINS” (BIOGEN MA INC, priority 2021, published 2025)
# Target: T1, IRAK4 (Homo sapiens, UniProt Q9NWZ3)
# T1 construct: knocking-in a HiBiT fusion tag into the C-terminal of the IRAK4 gene in 293T cells; host or cells: 293T cells, knock-in of HiBiT at the endogenous IRAK4 locus
# T1 sequence (Q9NWZ3 1-460): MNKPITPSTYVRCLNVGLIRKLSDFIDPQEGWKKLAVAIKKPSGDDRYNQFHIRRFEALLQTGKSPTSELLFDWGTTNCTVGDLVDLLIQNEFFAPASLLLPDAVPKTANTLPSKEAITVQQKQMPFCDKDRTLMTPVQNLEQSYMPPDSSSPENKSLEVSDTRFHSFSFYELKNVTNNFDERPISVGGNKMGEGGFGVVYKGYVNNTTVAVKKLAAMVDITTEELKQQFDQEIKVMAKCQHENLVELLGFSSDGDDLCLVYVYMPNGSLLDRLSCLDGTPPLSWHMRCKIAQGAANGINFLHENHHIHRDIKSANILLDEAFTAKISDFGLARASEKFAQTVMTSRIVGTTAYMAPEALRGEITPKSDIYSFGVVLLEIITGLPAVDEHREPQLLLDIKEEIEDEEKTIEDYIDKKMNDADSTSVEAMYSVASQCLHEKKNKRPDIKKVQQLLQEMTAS
# Assay: IRAK4 degradation assay using the HiBiT Method
# Format: cell-based
# Conditions: 293T cells expressing HiBiT-tagged IRAK4; 6-hour incubation; Nano-Glo HiBiT Lytic Assay luminescence
# Method: Selected compounds were tested in an IRAK4 degradation assay using the HiBiT Method.
# Phenol red-free Dulbecco's modified Eagle medium (DMEM) and fetal bovine serum (FBS) were purchased from Gibco (Grand Island, NY, USA). The Nano-Glo© HiBiT Lytic Assay System was purchased from Promega (Madison, WI, USA). Cell culture flasks and 384-well microplates were acquired from VWR (Radnor, PA, USA). The 293T cell line was engineered by knocking-in a HiBiT fusion tag into the C-terminal of the IRAK4 gene in 293T cells (Synthego, Redwood City, CA, USA).
# IRAK4 degradation was measured via the quantification of luminescent signals using the Nano-Glo© HiBiT Lytic Assay kit. Test compounds were added to 384-well plates in duplicate using an 11-point half-log dilution series, with the highest dose set at 10 mM. 293T cells expressing HiBiT-tagged IRAK4 were then added into 384-well plates at a cell density of 10,000 cells per well. The plates were kept at 37° C. with 5% CO2 for 6 hours. Cells that were treated only with DMSO served as the negative control; wells that contained only assay media served as the background control. After the 6-hour incubation, Nano-Glo® HiBiT Lytic Assay reagents were added to the cells. Luminescence was acquired using an EnVision® Multilabel Reader (PerkinElmer, Santa Clara, CA, USA).
row,SMILES,DC50 [nM]
1,"CC(C)Oc1cc2nc([C@H]3CC[C@H](CN4CCC(c5cccc(NC6CCC(=O)NC6=O)c5)CC4)CC3)cn2cc1NC(=O)c1cccc(C(F)(F)F)n1 (stereo partly drawn) [Example 39, N-[2-[4-[[4-[3-[(2,6-dioxo-3-piperidyl)amino]phenyl]-1-piperidyl]methyl]cyclohexyl]-7-isopropoxy-imidazo[1,2-a]pyridin-6-yl]-6-(trifluoromethyl)pyridine-2-carboxamide]",100 to 500
2,"CC(C)Oc1cc2nc([C@H]3CC[C@H](CN(C)C4CCN(c5cccc6c5n(C)c(=O)n6C5CCC(=O)NC5=O)CC4)CC3)cn2cc1NC(=O)c1cccc(C(F)(F)F)n1 (stereo partly drawn) [Example 42, N-[2-[4-[[[1-[1-(2,6-dioxo-3-piperidyl)-3-methyl-2-oxo-benzimidazol-4-yl]-4-piperidyl]-methyl-amino]methyl]cyclohexyl]-7-isopropoxy-imidazo[1,2-a]pyridin-6-yl]-6-(trifluoromethyl)pyridine-2-carboxamide]",100 to 500
3,"CC(C)Oc1cc2nc([C@H]3CC[C@H](CN(C)C4CCN(c5ccc6c(c5)n(C)c(=O)n6C5CCC(=O)NC5=O)CC4)CC3)cn2cc1NC(=O)c1cccc(C(F)(F)F)n1 (stereo partly drawn) [Example 45, N-[2-[4-[[[1-[1-(2,6-dioxo-3-piperidyl)-3-methyl-2-oxo-benzimidazol-5-yl]-4-piperidyl]-methyl-amino]methyl]cyclohexyl]-7-isopropoxy-imidazo[1,2-a]pyridin-6-yl]-6-(trifluoromethyl)pyridine-2-carboxamide]",500 to 1000
4,"CC(C)Oc1cc2nc([C@H]3CC[C@H](CN(C)C4CCN(Cc5cccc(NC6CCC(=O)NC6=O)c5)CC4)CC3)cn2cc1NC(=O)c1cccc(C(F)(F)F)n1 (stereo partly drawn) [Example 46, N-[2-[4-[[[1-[[3-[(2,6-dioxo-3-piperidyl)amino]phenyl]methyl]-4-piperidyl]-methyl-amino]methyl]cyclohexyl]-7-isopropoxy-imidazo[1,2-a]pyridin-6-yl]-6-(trifluoromethyl) pyridine-2-carboxamide]",> 1000
5,"CC(C)Oc1cc2nn(C3CCN(CC(=O)N4CCC(c5ccc(NC6CCC(=O)NC6=O)cc5)CC4)CC3)cc2cc1NC(=O)c1cccc(C(F)(F)F)n1 (stereo not drawn) [Example 49, N-(2-(1-(2-(4-(4-((2,6-dioxopiperidin-3-yl)amino)phenyl)piperidin-1-yl)-2-oxoethyl)piperidin-4-yl)-6-isopropoxy-2H-indazol-5-yl)-6-(trifluoromethyl) picolinamide]",10 to 100
6,"CC(C)Oc1cc2nn(C3CCN(C(=O)CN4CCC(c5ccc(NC6CCC(=O)NC6=O)cc5)CC4)CC3)cc2cc1NC(=O)c1cccc(C(F)(F)F)n1 (stereo not drawn) [Example 51, N-[2-[1-[2-[4-[4-[(2,6-dioxo-3-piperidyl)amino]phenyl]-1-piperidyl]acetyl]-4-piperidyl]-6-isopropoxy-indazol-5-yl]-6-(trifluoromethyl)pyridine-2-carboxamide]",10 to 100
7,"CC(C)Oc1cc2nn(C3CCN(C(=O)CN4CCC(c5ccc(NC6CCC(=O)NC6=O)cc5F)CC4)CC3)cc2cc1NC(=O)c1cccc(C(F)(F)F)n1 (stereo not drawn) [Example 52, N-(2-(1-(2-(4-(4-((2,6-dioxopiperidin-3-yl)amino)-2-fluorophenyl)piperidin-1-yl)acetyl)piperidin-4-yl)-6-isopropoxy-2H-indazol-5-yl)-6-(trifluoromethyl)picolinamide]",10 to 100
8,"CC(C)Oc1cc2nc(C3CCN(CC(=O)N4CCC(c5ccc(NC6CCC(=O)NC6=O)cc5)CC4)CC3)cn2cc1NC(=O)c1ccncn1 (stereo not drawn) [Example 53, N-[2-[1-[2-[4-[4-[(2,6-dioxo-3-piperidyl)amino]phenyl]-1-piperidyl]-2-oxo-ethyl]-4-piperidyl]-7-isopropoxy-imidazo[1,2-a]pyridin-6-yl]pyrimidine-4-carboxamide]",100 to 500
9,"CC(C)Oc1cc2nc(C3CCN(CC(=O)N4CCC(c5ccc(NC6CCC(=O)NC6=O)cc5)CC4)CC3)cn2cc1NC(=O)c1cccc(C(F)(F)F)c1 (stereo not drawn) [Example 54, N-[2-[1-[2-[4-[4-[(2,6-dioxo-3-piperidyl)amino]phenyl]-1-piperidyl]-2-oxo-ethyl]-4-piperidyl]-7-isopropoxy-imidazo[1,2-a]pyridin-6-yl]-3-(trifluoromethyl)benzamide]",100 to 500
10,"CC(C)Oc1cc2nc(C3CCN(CC(=O)N4CCC(c5ccc(NC6CCC(=O)NC6=O)cc5)CC4)CC3)cn2cc1NC(=O)c1ccccn1 (stereo not drawn) [Example 55, N-[2-[1-[2-[4-[4-[(2,6-dioxo-3-piperidyl)amino]phenyl]-1-piperidyl]-2-oxo-ethyl]-4-piperidyl]-7-isopropoxy-imidazo[1,2-a]pyridin-6-yl]pyridine-2-carboxamide]",10 to 100

# More lines, now with the values ahead:
row,DC50 [nM],SMILES
1,10 to 100,"CC(C)Oc1cc2nc([C@H]3CC[C@H](CN4CCC(c5cccc6c5n(C)c(=O)n6C5CCC(=O)NC5=O)CC4)CC3)cn2cc1NC(=O)c1cccc(C(F)(F)F)n1 (stereo partly drawn) [Example 37, N-[2-[4-[[4-[1-(2,6-dioxo-3-piperidyl)-3-methyl-2-oxo-benzimidazol-4-yl]-1-piperidyl]methyl]cyclohexyl]-7-isopropoxy-imidazo[1,2-a]pyridin-6-yl]-6-(trifluoromethyl)pyridine-2-carboxamide]"
2,100 to 500,"CC(C)Oc1cc2nc([C@H]3CC[C@H](CN4CCC(c5cccc(NC6CCC(=O)NC6=O)c5F)CC4)CC3)cn2cc1NC(=O)c1cccc(C(F)(F)F)n1 (stereo partly drawn) [Example 38, N-[2-[4-[[4-[3-[(2,6-dioxo-3-piperidyl)amino]-2-fluoro-phenyl]-1-piperidyl]methyl]cyclohexyl]-7-isopropoxy-imidazo[1,2-a]pyridin-6-yl]-6-(trifluoromethyl)pyridine-2-carboxamide]"
3,100 to 500,"CC(C)Oc1cc2nc([C@H]3CC[C@H](CN(C)C4CCN(c5ccc(C6CCC(=O)NC6=O)cc5)CC4)CC3)cn2cc1NC(=O)c1cccc(C(F)(F)F)n1 (stereo partly drawn) [Example 40, N-[2-[4-[[[1-[4-(2,6-dioxo-3-piperidyl)phenyl]-4-piperidyl]-methyl-amino]methyl]cyclohexyl]-7-isopropoxy-imidazo[1,2-a]pyridin-6-yl]-6-(trifluoromethyl)pyridine-2-carboxamide]"
4,100 to 500,"CC(C)Oc1cc2nc([C@H]3CC[C@H](CN4CCC(c5ccc(C6CCC(=O)NC6=O)cc5F)CC4)CC3)cn2cc1NC(=O)c1cccc(C(F)(F)F)n1 (stereo partly drawn) [Example 41, N-[2-[4-[[4-[4-(2,6-dioxo-3-piperidyl)-2-fluoro-phenyl]-1-piperidyl]methyl]cyclohexyl]-7-isopropoxy-imidazo[1,2-a]pyridin-6-yl]-6-(trifluoromethyl)pyridine-2-carboxamide]"
5,100 to 500,"CC(C)Oc1cc2nc([C@H]3CC[C@H](CN(C)C4CCN(c5cccc(C6CCC(=O)NC6=O)c5)CC4)CC3)cn2cc1NC(=O)c1cccc(C(F)(F)F)n1 (stereo partly drawn) [Example 43, N-[2-[4-[[[1-[3-(2,6-dioxo-3-piperidyl)phenyl]-4-piperidyl]-methyl-amino]methyl]cyclohexyl]-7-isopropoxy-imidazo[1,2-a]pyridin-6-yl]-6-(trifluoromethyl)pyridine-2-carboxamide]"
6,100 to 500,"CC(C)Oc1cc2nc([C@H]3CC[C@H](CN(C)C4CCN(c5cccc(NC6CCC(=O)NC6=O)c5)CC4)CC3)cn2cc1NC(=O)c1cccc(C(F)(F)F)n1 (stereo partly drawn) [Example 44, N-[2-[4-[[[1-[3-[(2,6-dioxo-3-piperidyl)amino]phenyl]-4-piperidyl]-methyl-amino]methyl]cyclohexyl]-7-isopropoxy-imidazo[1,2-a]pyridin-6-yl]-6-(trifluoromethyl) pyridine-2-carboxamide]"
7,100 to 500,"CC(C)Oc1cc2nc(C3CCC(CN4CCC(c5ccc6c(c5)n(C)c(=O)n6C5CCC(=O)NC5=O)CC4)CC3)cn2cc1NC(=O)c1cccc(C(F)(F)F)n1 (stereo not drawn) [Example 47, N-[2-[4-[[4-[1-(2,6-dioxo-3-piperidyl)-3-methyl-2-oxo-benzimidazol-5-yl]-1-piperidyl]methyl]cyclohexyl]-7-isopropoxy-imidazo[1,2-a]pyridin-6-yl]-6-(trifluoromethyl)pyridine-2-carboxamide]"
8,10 to 100,"CC(C)Oc1cc2nn(C3CCN(CC(=O)N4CCC(c5ccc(NC6CCC(=O)NC6=O)cc5F)CC4)CC3)cc2cc1NC(=O)c1cccc(C(F)(F)F)n1 (stereo not drawn) [Example 50, N-[2-[1-[2-[4-[4-[(2,6-dioxo-3-piperidyl)amino]-2-fluoro-phenyl]-1-piperidyl]-2-oxo-ethyl]-4-piperidyl]-6-isopropoxy-indazol-5-yl]-6-(trifluoromethyl)pyridine-2-carboxamide]"
